The IC50 is the concentration needed to halve the response being measured. Low readings indicate inhibition by little substance, high ones a need for much substance.

The target of one assay is MAGL (Mus musculus (Mouse), UniProt O35678). Put plainly: In vitro competitive activity-based protein profiling, MAGL (mouse). Format: biochemical. As to conditions: for inhibition at 1 µM: read-out: MAGL % inh. 1 μM (mouse). The essentials: (§1)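 Residual MAGL and FAAH activity quantified from fluorescent gel bands after SDS-PAGE. Before that, FP-Rh or HT-01 probe (50 μM stock) labelled for 30 min at 37 °C, following 30 min inhibitor preincubation. Mouse assays used brain membrane fraction or cell lysates, human used prefrontal cortex or cell membranes, all at 1.0 mg/mL protein.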

The target in the next assay is FAAH (Mus musculus (Mouse), UniProt O08914). Kind of assay: In vitro competitive activity-based protein profiling, FAAH (mouse). In kind it is biochemical. As to conditions: for inhibition at 1 µM: read-out: FAAH % inh. 1 μM (mouse). The essentials:
as §1

Sequence of FAAH (O08914 whole entry): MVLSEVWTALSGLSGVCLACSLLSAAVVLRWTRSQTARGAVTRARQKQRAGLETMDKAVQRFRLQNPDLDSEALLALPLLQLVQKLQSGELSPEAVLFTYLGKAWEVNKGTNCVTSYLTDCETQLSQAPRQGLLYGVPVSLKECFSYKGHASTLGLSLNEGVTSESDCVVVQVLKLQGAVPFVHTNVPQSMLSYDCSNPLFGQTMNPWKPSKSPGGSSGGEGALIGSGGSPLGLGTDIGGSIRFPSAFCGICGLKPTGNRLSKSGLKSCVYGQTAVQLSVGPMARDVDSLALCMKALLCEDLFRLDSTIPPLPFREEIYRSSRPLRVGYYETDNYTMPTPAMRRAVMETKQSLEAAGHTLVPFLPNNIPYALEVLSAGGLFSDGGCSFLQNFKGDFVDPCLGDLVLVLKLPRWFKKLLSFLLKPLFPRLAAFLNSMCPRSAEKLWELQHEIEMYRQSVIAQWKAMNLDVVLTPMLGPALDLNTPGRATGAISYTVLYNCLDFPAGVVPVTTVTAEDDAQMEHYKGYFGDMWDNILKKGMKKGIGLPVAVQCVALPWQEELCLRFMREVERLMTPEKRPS
Sequence of MAGL (O35678 whole entry): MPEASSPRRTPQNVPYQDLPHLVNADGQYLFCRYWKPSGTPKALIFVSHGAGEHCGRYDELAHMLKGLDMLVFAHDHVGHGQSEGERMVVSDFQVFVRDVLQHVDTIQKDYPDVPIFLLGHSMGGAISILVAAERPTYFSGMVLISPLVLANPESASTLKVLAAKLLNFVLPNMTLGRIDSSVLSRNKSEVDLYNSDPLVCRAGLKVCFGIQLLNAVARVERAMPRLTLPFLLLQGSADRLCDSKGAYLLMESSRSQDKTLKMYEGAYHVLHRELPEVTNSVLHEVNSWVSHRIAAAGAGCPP

As to `COc1cc(-c2ccccc2)ccc1CN1CCN(C(=O)n2cc(NS(C)(=O)=O)cn2)CC1` [Example 220, N-(1-(4-((3-methoxy-[1,1′-biphenyl]-4-yl)methyl)piperazine-1-carbonyl)-1H-pyrazol-4-yl)methanesulfonamide], the IC50 at MAGL is 100 to 1000 nM; on FAAH, ≤ 100 nM. For the same molecule, the inhibition at 1 µM on MAGL (1 μM) and at FAAH (1 μM) was ≥ 75% each time.

As to `CS(=O)(=O)Nc1cnn(C(=O)N2CCN(Cc3ccc(-c4ccccc4)cc3Cl)CC2)c1` [Example 221, N-(1-(4-((3-chloro-[1,1′-biphenyl]-4-yl)methyl)piperazine-1-carbonyl)-1H-pyrazol-4-yl)methanesulfonamide], the results for the IC50 on MAGL and on FAAH were 100 to 1000 nM and ≤ 100 nM, respectively. The inhibition at 1 µM on MAGL (1 μM) and on FAAH (1 μM) was ≥ 75% throughout.

Consider `CC(=O)N(C)c1cnn(C(=O)N2CC3CN(Cc4ccc(-c5ccccc5)cc4C)CC3C2)c1` (centres unmarked) [Example 223, N-methyl-N-(1-(5-((3-methyl-[1,1′-biphenyl]-4-yl)methyl)octahydropyrrolo[3,4-c]pyrrole-2-carbonyl)-1H-pyrazol-4-yl)acetamide], for which the IC50 on MAGL and on FAAH was ≤ 100 nM throughout. In addition, the inhibition at 1 µM on MAGL (1 μM) and at FAAH (1 μM) was ≥ 75% throughout.

Take `CS(=O)(=O)Nc1cnn(C(=O)N2CCN(Cc3ccc(-c4ccccc4)cc3OCc3ccccc3)CC2)c1` [Example 224, N-(1-(4-((3-(benzyloxy)-[1,1′-biphenyl]-4-yl)methyl)piperazine-1-carbonyl)-1H-pyrazol-4-yl)methanesulfonamide]: the inhibition at 1 µM at MAGL (1 μM) was ≥ 75%; on FAAH (1 μM), 50 to 75%.

On to `CC(=O)N(C)c1cnn(C(=O)N2CCC3(CC2)CN(Cc2ccc(-c4ccccc4)cc2C)C3)c1` [Example 226, N-methyl-N-(1-(2-((3-methyl-[1,1-biphenyl]-4-yl)methyl)-2,7-diazaspiro[3.5]nonane-7-carbonyl)-1H-pyrazol-4-yl)acetamide], for which the IC50 was ≤ 100 nM on MAGL and 100 to 1000 nM at FAAH. The inhibition at 1 µM at MAGL (1 μM) and on FAAH (1 μM) was ≥ 75% in each case.

Consider `CC(=O)Nc1cnn(C(=O)N2CCN(Cc3cc(N4CCCC4)cc(C(F)(F)F)c3)CC2)c1` [Example 227], for which the IC50 at MAGL and on FAAH was 100 to 1000 nM throughout. For the same molecule, the “MAGL % inh. 1 μM (mouse)” value on MAGL (1 μM) is listed as “A (A = % inhibition greater than or equal to 75%)”. At FAAH (1 μM), the “FAAH % inh. 1 μM (mouse)” value was “B (B = % inhibition greater than or equal to 50% and less than 75%)”.

On to `CC(=O)Nc1cnn(C(=O)N2CCN(Cc3ccc(C(F)(F)F)cc3N3C4CCC3COC4)CC2)c1` [Example 228, N-(1-(4-(2-(3-oxa-8-azabicyclo[3.2.1]octan-8-yl)-4-(trifluoromethyl)benzyl)piperazine-1-carbonyl)-1H-pyrazol-4-yl)acetamide], for which the figures for the IC50 on MAGL and at FAAH were 100 to 1000 nM and 1000 to 10000 nM, respectively. The inhibition at 1 µM is ≥ 75% at MAGL (1 μM) and 0 to 25% at FAAH (1 μM).

In the case of `CC(=O)N(C)c1cnn(C(=O)N2CC3(CCN(Cc4cccc(Oc5ccccc5)c4)CC3)C2)c1` [Example 229, N-methyl-N-(1-(7-(3-phenoxybenzyl)-2,7-diazaspiro[3.5]nonane-2-carbonyl)-1H-pyrazol-4-yl)acetamide], the IC50 on MAGL is 1000 to 10000 nM; at FAAH it was ≤ 100 nM. Moreover, the inhibition at 1 µM on MAGL (1 μM) was 50 to 75%; at FAAH (1 μM) it was ≥ 75%.

For `CC(=O)N(C)c1cnn(C(=O)N2CC3(CCN(Cc4ccc(CN5CCOCC5)cc4)CC3)C2)c1` [Example 230, N-methyl-N-(1-(7-(4-(morpholinomethyl)benzyl)-2,7-diazaspiro[3.5]nonane-2-carbonyl)-1H-pyrazol-4-yl)acetamide], the figures for the inhibition at 1 µM on MAGL (1 μM) and at FAAH (1 μM) were 25 to 50% and 0 to 25%, respectively.

For `CC(=O)N(C)c1cnn(C(=O)N2CCC3(CCN(Cc4ccc(-c5ccccc5)cc4C)C3)C2)c1` (centres unmarked) [Example 232, N-methyl-N-(1-(7-((3-methyl-[1,1′-biphenyl]-4-yl)methyl)-2,7-diazaspiro[4.4]nonane-2-carbonyl)-1H-pyrazol-4-yl)acetamide], the IC50 on MAGL and on FAAH was ≤ 100 nM in each case. For the same molecule, the inhibition at 1 µM at MAGL (1 μM) and on FAAH (1 μM) was ≥ 75% in each case.

Regarding `CC(=O)N(C)c1cnn(C(=O)N2CCC3(CC2)CN(Cc2ccc(CN4CCOCC4)cc2)C3)c1` [Example 233, N-methyl-N-(1-(2-(4-(morpholinomethyl)benzyl)-2,7-diazaspiro[3.5]nonane-7-carbonyl)-1H-pyrazol-4-yl)acetamide], the inhibition at 1 µM was 50 to 75% on MAGL (1 μM) and 0 to 25% on FAAH (1 μM).

Consider `CC(=O)N(C)c1cnn(C(=O)N2CC3CN(Cc4cccc(Oc5ccccc5)c4)CC3C2)c1` (centres unmarked) [Example 234, N-methyl-N-(1-(5-(3-phenoxybenzyl)octahydropyrrolo[3,4-c]pyrrole-2-carbonyl)-1H-pyrazol-4-yl)acetamide], for which the IC50 at MAGL and on FAAH was ≤ 100 nM in each case. The inhibition at 1 µM on MAGL (1 μM) and at FAAH (1 μM) was ≥ 75% each time.

On to `CC(=O)N(C)c1cnn(C(=O)N2CCC3(CC2)CN(Cc2cccc(Oc4ccccc4)c2)C3)c1` [Example 235, N-methyl-N-(1-(2-(3-phenoxybenzyl)-2,7-diazaspiro[3.5]nonane-7-carbonyl)-1H-pyrazol-4-yl)acetamide], for which the IC50 on MAGL and at FAAH was ≤ 100 nM throughout. Besides, the inhibition at 1 µM on MAGL (1 μM) and at FAAH (1 μM) was ≥ 75% each time.

Turning to `CC(=O)N(C)c1cnn(C(=O)N2CC3CN(Cc4cccc(Oc5ccc(Cl)cc5)c4)CC3C2)c1` (centres unmarked) [Example 237, N-(1-(5-(3-(4-chlorophenoxy)benzyl)octahydropyrrolo [3,4-c]pyrrole-2-carbonyl)-1H-pyrazol-4-yl)-N-methylacetamide], the IC50 on MAGL and on FAAH was ≤ 100 nM throughout. The inhibition at 1 µM on MAGL (1 μM) and on FAAH (1 μM) was ≥ 75% throughout.

At MAGL, `CC(=O)N(C)c1cnn(C(=O)N2CC3CN(Cc4cccc(Oc5ccccn5)c4)CC3C2)c1` (centres unmarked) [Example 238, N-methyl-N-(1-(5-(3-(pyridin-2-yloxy)benzyl)octahydropyrrolo[3,4-c]pyrrole-2-carbonyl)-1H-pyrazol-4-yl)acetamide] displayed an IC50 of 100 to 1000 nM. Moreover, the inhibition at 1 µM at MAGL (1 μM) and on FAAH (1 μM) was ≥ 75% each time.

On to `CC(=O)N(C)c1cnn(C(=O)N2CC3CN(Cc4cccc(OCc5ccccc5)c4)CC3C2)c1` (centres unmarked) [Example 239, N-(1-(5-(3-(benzyloxy)benzyl)octahydropyrrolo[3,4-c]pyrrole-2-carbonyl)-1H-pyrazol-4-yl)-N-methylacetamide], for which the IC50 on MAGL and at FAAH was ≤ 100 nM each time. Further, the inhibition at 1 µM at MAGL (1 μM) and on FAAH (1 μM) was ≥ 75% each time.

Take `CC(=O)N(C)c1cnn(C(=O)N2CC3CN(Cc4cccc(Oc5ccccc5Cl)c4)CC3C2)c1` (centres unmarked) [Example 240, N-(1-(5-(3-(2-chlorophenoxy)benzyl)octahydropyrrolo [3,4-c]pyrrole-2-carbonyl)-1H-pyrazol-4-yl)-N-methylacetamide]: the IC50 on MAGL and at FAAH was ≤ 100 nM each time. The inhibition at 1 µM at MAGL (1 μM) and on FAAH (1 μM) was ≥ 75% each time.

In the case of `CC(=O)N(C)c1cnn(C(=O)N2CC3CN(Cc4ccc(Oc5ccccc5)cc4)CC3C2)c1` (centres unmarked) [Example 241, N-methyl-N-(1-(5-(4-phenoxybenzyl)octahydropyrrolo[3,4-c]pyrrole-2-carbonyl)-1H-pyrazol-4-yl)acetamide], the IC50 on MAGL and at FAAH was ≤ 100 nM in each case. Further, the inhibition at 1 µM at MAGL (1 μM) and at FAAH (1 μM) was ≥ 75% in each case.

As to `CC(=O)N(C)c1cnn(C(=O)N2CC3CN(Cc4ccc5c(c4)OC(F)(F)O5)CC3C2)c1` (centres unmarked) [Example 242, N-(1-(5-((2,2-difluorobenzo[d][1,3]dioxol-5-yl)methyl)octahydropyrrolo[3,4-c]pyrrole-2-carbonyl)-1H-pyrazol-4-yl)-N-methylacetamide], the IC50 at MAGL and on FAAH was ≤ 100 nM each time. Besides, the inhibition at 1 µM on MAGL (1 μM) and on FAAH (1 μM) was ≥ 75% in each case.

Turning to `CC(=O)N(C)c1cnn(C(=O)N2CC3CN(Cc4cccc(Oc5cccc(Cl)c5)c4)CC3C2)c1` (centres unmarked) [Example 244, N-(1-(5-(3-(3-chlorophenoxy)benzyl)octahydropyrrolo [3,4-c]pyrrole-2-carbonyl)-1H-pyrazol-4-yl)-N-methylacetamide], the 50% inhibitory concentration (IC50) on MAGL and at FAAH was ≤ 100 nM each time. Also, the inhibition at 1 µM on MAGL (1 μM) and at FAAH (1 μM) was ≥ 75% throughout.

For the molecule `CC(=O)N(C)c1cnn(C(=O)N2CC3CN(Cc4ccc(Oc5ccc(Cl)cc5)cc4)CC3C2)c1` (centres unmarked) [Example 245, N-(1-(5-(4-(4-chlorophenoxy)benzyl)octahydropyrrolo [3,4-c]pyrrole-2-carbonyl)-1H-pyrazol-4-yl)-N-methylacetamide], the half-inhibitory concentration (IC50) on MAGL and at FAAH was ≤ 100 nM in each case. The inhibition at 1 µM at MAGL (1 μM) and on FAAH (1 μM) was ≥ 75% in each case.

Turning to `CC(=O)N(C)c1cnn(C(=O)N2CC3CN(Cc4cc(F)c(F)cc4F)CC3C2)c1` (centres unmarked) [Example 246, N-methyl-N-(1-(5-(2,4,5-trifluorobenzyl)octahydropyrrolo[3,4-c]pyrrole-2-carbonyl)-1H-pyrazol-4-yl)acetamide], the IC50 is 100 to 1000 nM on MAGL and ≤ 100 nM at FAAH. Besides, the inhibition at 1 µM on MAGL (1 μM) and on FAAH (1 μM) was ≥ 75% in each case.

For `CC(=O)N(C)c1cnn(C(=O)N2CC3CN(Cc4cc(Cl)cc(N5CCC6(CCOCC6)C5)c4)CC3C2)c1` (centres unmarked) [Example 247, N-(1-(5-(3-chloro-5-(8-oxa-2-azaspiro[4.5]decan-2-yl)benzyl)octahydropyrrolo[3,4-c]pyrrole-2-carbonyl)-1H-pyrazol-4-yl)-N-methylacetamide], the inhibition at 1 µM on MAGL (1 μM) and on FAAH (1 μM) was ≥ 75% in each case.

Source of the values: patent US10323038B2, “Pyrazole compounds and methods of making and using same” (ABIDE THERAPEUTICS, INC., priority 2015, dated 2019).
